Data as given in PubChem BioAssay (NCI).
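Assay format: 96-well plates, 48-hour exposure. Abbreviation: GI50, concentration required for 50% inhibition of growth. TGI denotes the concentration required for complete inhibition of growth.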

Experiments:
Experiment in all cases: NCI-60 cell line screen, 48 h
NCI-H522 lung = test system: NCI-H522 lung
SR leukemia = test system: SR leukemia
786-0 renal = test system: 786-0 renal
UO-31 renal = test system: UO-31 renal
SK-MEL-5 melanoma = test system: SK-MEL-5 melanoma
K-562 leukemia = test system: K-562 leukemia
DU-145 prostate = test system: DU-145 prostate
RPMI-8226 leukemia = test system: RPMI-8226 leukemia
SNB-75 CNS = test system: SNB-75 CNS
U251 CNS = test system: U251 CNS
NCI-H460 lung = test system: NCI-H460 lung
HOP-62 NSCLC = test system: HOP-62 NSCLC
BT-549 breast = test system: BT-549 breast
MOLT-4 leukemia = test system: MOLT-4 leukemia
A549 NSCLC = test system: A549 NSCLC
SF-539 CNS = test system: SF-539 CNS
MDA-MB-435 = test system: MDA-MB-435
SF-295 CNS = test system: SF-295 CNS
SW-620 colon = test system: SW-620 colon
HCC-2998 colon = test system: HCC-2998 colon
SNB-19 CNS = test system: SNB-19 CNS
SK-MEL-28 melanoma = test system: SK-MEL-28 melanoma
OVCAR-3 ovarian = test system: OVCAR-3 ovarian
SK-OV-3 ovarian = test system: SK-OV-3 ovarian
TK-10 renal = test system: TK-10 renal
PC-3 prostate = test system: PC-3 prostate
OVCAR-4 ovarian = test system: OVCAR-4 ovarian
OVCAR-8 ovarian = test system: OVCAR-8 ovarian
NCI-H23 lung = test system: NCI-H23 lung
IGROV1 ovarian = test system: IGROV1 ovarian
HL-60(TB) leukemia = test system: HL-60(TB) leukemia
COLO 205 colon = test system: COLO 205 colon
RXF 393 renal = test system: RXF 393 renal
NCI/ADR-RES ovarian = test system: NCI/ADR-RES ovarian
HCT-15 colon = test system: HCT-15 colon
MDA-MB-231 breast = test system: MDA-MB-231 breast
MALME-3M melanoma = test system: MALME-3M melanoma
A498 renal = test system: A498 renal
SN12C renal = test system: SN12C renal
T-47D breast = test system: T-47D breast
SK-MEL-2 melanoma = test system: SK-MEL-2 melanoma
UACC-62 melanoma = test system: UACC-62 melanoma
MCF7 breast = test system: MCF7 breast
M14 melanoma = test system: M14 melanoma
KM12 colon = test system: KM12 colon
ACHN renal = test system: ACHN renal
EKVX NSCLC = test system: EKVX NSCLC
HS 578T breast = test system: HS 578T breast
SF-268 CNS = test system: SF-268 CNS
CAKI-1 renal = test system: CAKI-1 renal
UACC-257 melanoma = test system: UACC-257 melanoma
OVCAR-5 ovarian = test system: OVCAR-5 ovarian
HT29 colon = test system: HT29 colon
CCRF-CEM leukemia = test system: CCRF-CEM leukemia
NCI-H226 lung = test system: NCI-H226 lung
HOP-92 NSCLC = test system: HOP-92 NSCLC
HCT-116 colon = test system: HCT-116 colon
LOX IMVI melanoma = test system: LOX IMVI melanoma

## C=C(C)[C@@H]1CC[C@]2(COCCCNCCCN)CC[C@]3(C)[C@H](CC[C@@H]4[C@@]5(C)CC[C@H](OCCCN)C(C)(C)[C@@H]5CC[C@]43C)[C@@H]12
NCI-H522 lung
  GI50: 868 nM
  TGI: 1720 nM
SR leukemia
  GI50: 577 nM
  TGI: 1940 nM
786-0 renal
  GI50: 825 nM
  TGI: 1500 nM
UO-31 renal
  GI50: 765 nM
  TGI: 1500 nM
SK-MEL-5 melanoma
  GI50: 1720 nM
  TGI: 5810 nM
K-562 leukemia
  GI50: 879 nM
  TGI: 1820 nM
DU-145 prostate
  GI50: 895 nM
  TGI: 1620 nM
RPMI-8226 leukemia
  GI50: 1070 nM
  TGI: 2560 nM
SNB-75 CNS
  GI50: 778 nM
  TGI: 1570 nM
U251 CNS
  GI50: 836 nM
  TGI: 1540 nM
NCI-H460 lung
  GI50: 940 nM
  TGI: 1750 nM
HOP-62 NSCLC
  GI50: 831 nM
  TGI: 1620 nM
BT-549 breast
  GI50: 6860 nM
  TGI: 14200 nM
MOLT-4 leukemia
  GI50: 1050 nM
  TGI: 2580 nM
A549 NSCLC
  GI50: 909 nM
  TGI: 1710 nM
SF-539 CNS
  GI50: 891 nM
  TGI: 1590 nM
MDA-MB-435
  GI50: 833 nM
  TGI: 1530 nM
SF-295 CNS
  GI50: 868 nM
  TGI: 1590 nM
SW-620 colon
  GI50: 871 nM
  TGI: 1670 nM
HCC-2998 colon
  GI50: 960 nM
  TGI: 1810 nM
SNB-19 CNS
  GI50: 913 nM
  TGI: 1660 nM
SK-MEL-28 melanoma
  GI50: 876 nM
  TGI: 1600 nM
OVCAR-3 ovarian
  GI50: 942 nM
  TGI: 1720 nM
SK-OV-3 ovarian
  GI50: 1390 nM
  TGI: 4280 nM
TK-10 renal
  GI50: 952 nM
  TGI: 1940 nM
PC-3 prostate
  GI50: 874 nM
  TGI: 1720 nM
OVCAR-4 ovarian
  GI50: 934 nM
  TGI: 1780 nM
OVCAR-8 ovarian
  GI50: 903 nM
  TGI: 1720 nM
NCI-H23 lung
  GI50: 934 nM
  TGI: 1790 nM
IGROV1 ovarian
  GI50: 930 nM
  TGI: 1720 nM
HL-60(TB) leukemia
  GI50: 2120 nM
  TGI: 8330 nM
COLO 205 colon
  GI50: 778 nM
  TGI: 1560 nM
RXF 393 renal
  GI50: 825 nM
  TGI: 1610 nM
NCI/ADR-RES ovarian
  GI50: 936 nM
  TGI: 1870 nM
HCT-15 colon
  GI50: 860 nM
  TGI: 1590 nM
MDA-MB-231 breast
  GI50: 863 nM
  TGI: 1670 nM
MALME-3M melanoma
  GI50: 801 nM
  TGI: 1530 nM
A498 renal
  GI50: 7220 nM
  TGI: 14400 nM
SN12C renal
  GI50: 867 nM
  TGI: 1620 nM
T-47D breast
  GI50: 858 nM
  TGI: 1710 nM
SK-MEL-2 melanoma
  GI50: 6860 nM
  TGI: 13800 nM
UACC-62 melanoma
  GI50: 914 nM
  TGI: 1670 nM
MCF7 breast
  GI50: 879 nM
  TGI: 1700 nM
M14 melanoma
  GI50: 866 nM
  TGI: 1650 nM
KM12 colon
  GI50: 928 nM
  TGI: 1730 nM
ACHN renal
  GI50: 996 nM
  TGI: 1950 nM
EKVX NSCLC
  GI50: 812 nM
  TGI: 1610 nM
HS 578T breast
  GI50: 997 nM
  TGI: 2150 nM
SF-268 CNS
  GI50: 6770 nM
  TGI: 15100 nM
CAKI-1 renal
  GI50: 982 nM
  TGI: 2300 nM
UACC-257 melanoma
  GI50: 914 nM
  TGI: 1750 nM
OVCAR-5 ovarian
  GI50: 918 nM
  TGI: 1670 nM
HT29 colon
  GI50: 813 nM
  TGI: 1530 nM
CCRF-CEM leukemia
  GI50: 822 nM
  TGI: 1970 nM
NCI-H226 lung
  GI50: 1040 nM
  TGI: 2340 nM
HOP-92 NSCLC
  GI50: 2100 nM
  TGI: 9760 nM
HCT-116 colon
  GI50: 898 nM
  TGI: 1670 nM
LOX IMVI melanoma
  GI50: 846 nM
  TGI: 1570 nM

## CC(CN(C)C)S(=O)(=O)c1ccc(-c2cnc(N)c(C(=O)Nc3ccccc3)n2)cc1 (configuration not stated)
NCI-H522 lung
  GI50: 17500 nM
  TGI: 35900 nM
SR leukemia
  GI50: 1390 nM
  TGI: 8530 nM
786-0 renal
  GI50: 2370 nM
  TGI: 15200 nM
UO-31 renal
  GI50: 4780 nM
  TGI: 28700 nM
SK-MEL-5 melanoma
  GI50: 2930 nM
  TGI: 11500 nM
K-562 leukemia
  GI50: 3000 nM
  TGI: 22000 nM
DU-145 prostate
  GI50: 4560 nM
  TGI: > 49800 nM
RPMI-8226 leukemia
  GI50: 13800 nM
  TGI: 48900 nM
SNB-75 CNS
  GI50: 2580 nM
  TGI: 35500 nM
U251 CNS
  GI50: 4170 nM
  TGI: 30000 nM
NCI-H460 lung
  GI50: 2950 nM
  TGI: 22200 nM
HOP-62 NSCLC
  GI50: 8160 nM
  TGI: 36200 nM
BT-549 breast
  GI50: 6430 nM
  TGI: 27200 nM
MOLT-4 leukemia
  GI50: 3150 nM
  TGI: 14200 nM
A549 NSCLC
  GI50: 2860 nM
  TGI: > 46100 nM
SF-539 CNS
  GI50: 2750 nM
  TGI: 9760 nM
MDA-MB-435
  GI50: 4510 nM
  TGI: 23800 nM
SF-295 CNS
  GI50: 8490 nM
  TGI: 25700 nM
SW-620 colon
  GI50: 3840 nM
  TGI: 19200 nM
HCC-2998 colon
  GI50: 973 nM
  TGI: 16600 nM
SNB-19 CNS
  GI50: 16300 nM
  TGI: 75100 nM
SK-MEL-28 melanoma
  GI50: 7220 nM
  TGI: 21400 nM
OVCAR-3 ovarian
  GI50: 5830 nM
  TGI: 32900 nM
SK-OV-3 ovarian
  GI50: 6040 nM
  TGI: > 54500 nM
TK-10 renal
  GI50: 11500 nM
  TGI: > 57200 nM
PC-3 prostate
  GI50: 10900 nM
  TGI: > 73800 nM
OVCAR-4 ovarian
  GI50: 6950 nM
  TGI: 54200 nM
OVCAR-8 ovarian
  GI50: 10300 nM
  TGI: > 89800 nM
NCI-H23 lung
  GI50: 3050 nM
  TGI: 24700 nM
IGROV1 ovarian
  GI50: 3150 nM
  TGI: 36000 nM
HL-60(TB) leukemia
  GI50: 3050 nM
  TGI: 11000 nM
COLO 205 colon
  GI50: 2740 nM
  TGI: 8560 nM
RXF 393 renal
  GI50: 1520 nM
  TGI: 8400 nM
NCI/ADR-RES ovarian
  GI50: 5200 nM
  TGI: > 100000 nM
HCT-15 colon
  GI50: 2910 nM
  TGI: 13400 nM
MDA-MB-231 breast
  GI50: 10600 nM
  TGI: 27600 nM
MALME-3M melanoma
  GI50: 8160 nM
  TGI: 26600 nM
A498 renal
  GI50: 2410 nM
  TGI: 9020 nM
SN12C renal
  GI50: 5090 nM
  TGI: 27000 nM
T-47D breast
  GI50: 13100 nM
  TGI: 59300 nM
SK-MEL-2 melanoma
  GI50: 4310 nM
  TGI: 17600 nM
UACC-62 melanoma
  GI50: 6280 nM
  TGI: 21600 nM
MCF7 breast
  GI50: 1580 nM
  TGI: 38800 nM
M14 melanoma
  GI50: 4060 nM
  TGI: 21900 nM
KM12 colon
  GI50: 11100 nM
  TGI: 28700 nM
ACHN renal
  GI50: 1350 nM
  TGI: 16900 nM
EKVX NSCLC
  GI50: 31100 nM
  TGI: > 100000 nM
HS 578T breast
  GI50: 2410 nM
  TGI: 27000 nM
SF-268 CNS
  GI50: 6800 nM
  TGI: 39800 nM
CAKI-1 renal
  GI50: 3020 nM
  TGI: > 50800 nM
UACC-257 melanoma
  GI50: 2040 nM
  TGI: 5060 nM
OVCAR-5 ovarian
  GI50: 11800 nM
  TGI: 34500 nM
HT29 colon
  GI50: 2680 nM
  TGI: 13400 nM
CCRF-CEM leukemia
  GI50: 2610 nM
  TGI: 29600 nM
NCI-H226 lung
  GI50: 12900 nM
  TGI: 35400 nM
HOP-92 NSCLC
  GI50: 6860 nM
  TGI: 34700 nM
HCT-116 colon
  GI50: 4880 nM
  TGI: 21200 nM
LOX IMVI melanoma
  GI50: 2820 nM
  TGI: 16700 nM
